Data reported in ChEMBL document CHEMBL1159264, “Aplysillin A, a thrombin receptor antagonist from the marine sponge Aplysina fistularis fulva” (J Nat Prod, 1995).

Molecular target: T1, Proteinase-activated receptor 1 (Homo sapiens, UniProt P25116)
T1 sequence (P25116 whole entry): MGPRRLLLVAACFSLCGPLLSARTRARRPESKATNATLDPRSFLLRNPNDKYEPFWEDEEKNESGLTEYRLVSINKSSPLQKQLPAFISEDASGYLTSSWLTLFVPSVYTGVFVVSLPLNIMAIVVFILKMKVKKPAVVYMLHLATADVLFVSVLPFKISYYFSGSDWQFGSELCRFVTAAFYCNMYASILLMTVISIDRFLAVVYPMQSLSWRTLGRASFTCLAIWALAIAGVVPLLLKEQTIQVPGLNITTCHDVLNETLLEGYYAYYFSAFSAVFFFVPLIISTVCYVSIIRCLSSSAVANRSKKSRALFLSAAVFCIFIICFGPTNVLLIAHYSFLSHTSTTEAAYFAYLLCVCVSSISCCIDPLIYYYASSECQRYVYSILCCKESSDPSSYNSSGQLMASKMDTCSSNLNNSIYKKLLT
Test: Displacement of [125I]thrombin from thrombin receptor in human platelet membrane
Assay type: cell membranes

O=S(=O)(O)OC(=C\c1cc(O)c(O)c(Br)c1)/C(=C\c1ccc(O)c(Br)c1)OS(=O)(=O)O [APLYSIILLIN A]
IC50: 20 µM
